Experimental data reported in patent US9771625B2, “Monoamine oxidase inhibitors and methods for treatment and diagnosis of prostate cancer” (UNIVERSITY OF SOUTHERN CALIFORNIA, priority 2011, dated 2017).
Each block holds one compound with its values, some of them ahead of it.

Key:
[1] = molecular target: T1, MAO A (Homo sapiens, UniProt P21397); assay: MAO A inhibition assay in C4-2B cells with radiolabeled substrate (C-14 serotonin); assay type: cell-based
T1 construct: This cell line was selected due to its high levels of the expressed MAO-A; endogenous in cells; host or cells: C4-2B human prostate cancer cells
T1 sequence (P21397 1-527): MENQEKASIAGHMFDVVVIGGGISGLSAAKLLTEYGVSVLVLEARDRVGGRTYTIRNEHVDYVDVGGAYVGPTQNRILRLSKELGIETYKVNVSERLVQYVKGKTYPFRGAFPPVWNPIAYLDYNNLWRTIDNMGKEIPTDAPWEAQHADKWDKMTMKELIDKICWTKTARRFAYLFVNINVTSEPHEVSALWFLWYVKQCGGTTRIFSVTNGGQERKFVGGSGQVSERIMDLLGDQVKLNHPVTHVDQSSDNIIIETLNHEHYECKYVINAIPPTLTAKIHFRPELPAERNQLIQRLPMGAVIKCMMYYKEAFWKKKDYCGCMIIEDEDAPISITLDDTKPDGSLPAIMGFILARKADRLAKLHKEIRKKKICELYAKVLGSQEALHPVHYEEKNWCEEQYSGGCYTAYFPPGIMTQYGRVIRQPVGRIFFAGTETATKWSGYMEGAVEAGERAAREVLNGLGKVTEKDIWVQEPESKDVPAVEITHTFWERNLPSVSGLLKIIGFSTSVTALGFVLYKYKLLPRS
Description: Compound 10 was pre-incubated with 1×10^6 prostate C4-2B cells at 37° C. for 20 min. Then, MAO A substrate C-14 serotonin was added to the incubation solution for 37° C. 20 min. At the end of the incubation, the reaction product was extracted and the radioactivity was counted. The MAO-A activity was expressed as […] product formed/20 min/mg protein. The activity without the presence of inhibitor, compound 10, was taken as 100%.
In order to test an inhibitory activity of the MHI-clorgyline 10, a standard MAO A inhibition assay was carried out in C4-2B cells using radiolabeled substrates.

[2] = tested on: C4-2B prostate cancer cells; assay: Laser-scanning confocal NIR imaging of cellular uptake and localization; assay type: cell-based, human; details: C4-2B PCa cells
Source text: Moreover, the two dyes also have strong emission at 820-860 nm upon excitation at 750-780 nm, which can be easily detected and visualized by NIR imaging equipment and laser-scanning confocal microscopes. Here, we resorted to the use of Zeiss LSM 510 confocal microscope as the imaging equipment. Although cellular uptake of the conjugate was uncertain, due to the similarity in structure, MHI-clorgyline conjugates were expected to have similar fluorescence properties as the NIR dye itself. Therefore, NIR imaging with laser-scanning confocal microscope was used to examine the cellular uptake of MHI-clorgyline in human prostate epithelial cancer cells (C4-2B). This cell line was selected due to its high levels of the expressed MAO-A.
(§1) An imaging study with the newly synthesized MHI-clorgyline 10 was carried out (FIG. 11).

[3] = tested on: tumor xenografts and spontaneous tumors in transgenic mice; details: cited from earlier work
[4] = tested on: live cells; assay: Preliminary imaging study of IR-783 dye in live cells; assay type: cell-based
Description: as §1

[5] = tested on: control and MAO-A-overexpressing PC-3 tumor xenografts; assay: In vivo and ex vivo MHI-148 NIR imaging of PC-3 tumor xenografts; set-up: species or system nude mice
Source text: FIG. 19 MAO-A enhanced NIR dye uptake in PC-3 tumor xenografts. (A) Representative in vivo MHI-148 NIR imaging (i.p. injection, 10 nmol/20 g) of nude mice subcutaneously implanted with control (left flank) and MAO-A-overexpressing (right flank) PC-3 cells. Arrows point to tumor xenografts. […] (C) Quantitation of tumor NIR intensity in (A) by determining total emission divided by tumor weight (5 mice). *, p<0.05.
A class of fluorescent heptamethine cyanines with near-infrared (NIR) emission maxima, such as MHI-148 dye, which has been identified recently, are non-toxic and have dual functions as tumor-specific targeting and imaging modalities. These dyes, partially mediated by hypoxia, are specifically retained in cancer but not normal cells, and also in tumor xenografts as well as spontaneous tumors in transgenic mice. […] This would allow the development and validation of novel PCa-seeking MAO-A inhibitors with acquired synergistic tumor-targeting abilities as new agents for PCa therapies with minimal systemic host toxicity.

[6] = tested on: human prostate cancer cells; assay: Growth of prostate cancer cells in vitro; assay type: cell-based
Source text: (§2) In the present invention, it was unexpectedly discovered that increase of MAO-A activity or expression is correlated with the progression of human prostate cancer. […] This finding establishes MAOs as a target for cancer.

[7] = tested on: tumor xenografts; assay: Growth of tumor xenografts in vivo
Source text: as §2

SMILES: C#CCN(CCCOc1ccc(Cl)cc1Cl)CCCSC(=O)CCCCCN1/C(=C\C=C2/CCCC(/C=C/C3=[N+](CCCCCC(=O)O)c4ccccc4C3(C)C)=C2Cl)C(C)(C)c2ccccc21 [Compound 10]
IC50 ([1]; 37° C., 20 min pre-incubation, C-14 serotonin substrate): 21.8 µM | MAO A inhibitory activity compared with clorgyline ([1]; data not shown): lesser than that of clorgyline itself | subcellular localization ([2]; co-staining with mitochondria-specific dye): localized in the mitochondria | cellular accumulation ([2]; confocal imaging): rapid accumulation

SMILES: CC1(C)C(=CC=C2CCCC(C=CC3=[N+](CCCCS(=O)(=O)[O-])c4ccccc4C3(C)C)=C2Cl)N(CCCCS(=O)(=O)[O-])c2ccccc21.[Na+] [IR-783]
retention in cancer cells versus normal cells [3]: retained in cancer cells but not normal cells | subcellular localization [4]: co-localized in mitochondria

NIR dye uptake in tumor xenografts ([5]; MAO-A-overexpressing vs control PC-3 xenografts, i.p. injection, 10 nmol/20 g): enhanced uptake
SMILES: CC1(C)C(/C=C/C2=C(Cl)C(=C/C=C3/N(CCCCCC(=O)O)c4ccccc4C3(C)C)/CCC2)=[N+](CCCCCC(=O)O)c2ccccc21 [MHI-148]
retention in cancer cells versus normal cells [3]: retained in cancer cells but not normal cells | ex vivo NIR signal in tumor tissues versus organs ([5]; ex vivo NIR imaging, nude mice with PC-3 xenografts): Tumor tissues but not organs displayed strong signals

SMILES: C#CCN(C)CCCOc1ccc(Cl)cc1Cl [clorgyline]
growth of human prostate cancer cells [6]: repressing the growth | growth of tumor xenografts [7]: repressing the growth
